Source: patent publication US10815197B2, “N-sulfonyl benzamides as voltage-gated sodium channel inhibitors” (SHANGHAI HAIYAN PHARMACEUTICAL TECHNOLOGY CO., LTD., priority 2016, dated 2020)
pIC50: −log10 of the molar value.

biological target: T1, hCav3.2 (Homo sapiens, UniProt O95180); test: Manual patch clamp experiment of hCav3.2 channel (HEK-hCav3.2); format: cell-based; details: read-out: Cav3.2(IC50/nM)
T1 construct: host or cells: HEK
Experimental: Manual Patch Clamp Experiment of hCav3.2 Channel: The stable cell line HEK-hCav3.2 used for manual patch clamp experiments was from WuXi Apptec (Shanghai) Company. […] Composition of extracellular fluid (millimoles) in the experiment: HEPES 10, CsCl 6, CaCl2) 2, TEA-Cl 140. The pH was adjusted to 7.4 with CsOH, while the osmotic pressure was adjusted to 310-320 mOsm with sucrose, filtered and stored at 4° C. Composition of the intracellular fluid (millimoles): HEPES 10, CsCl 55, CsSO4 75, MgCl2 10, EGTA 0.1. The pH was adjusted to 7.2 with CsOH, while the osmotic pressure was adjusted to 280-290 mOsm with sucrose, filtered and stored at −20° C. […] Manual Patch Clamp Experiment: The cell suspension was added to a 35 mm petri dish and placed on an inverted microscope stage. The cells were perfused with an extracellular fluid and the flow rate was 1-2 mL/min after cell adherence. […] The stimulation program was repeated every 15 s and recorded continuously. The inhibitory effect of the compound was calculated by the change of the current before and after dosing, and the IC50 value was fitted by the Hill equation.

T1 sequence (O95180 whole entry): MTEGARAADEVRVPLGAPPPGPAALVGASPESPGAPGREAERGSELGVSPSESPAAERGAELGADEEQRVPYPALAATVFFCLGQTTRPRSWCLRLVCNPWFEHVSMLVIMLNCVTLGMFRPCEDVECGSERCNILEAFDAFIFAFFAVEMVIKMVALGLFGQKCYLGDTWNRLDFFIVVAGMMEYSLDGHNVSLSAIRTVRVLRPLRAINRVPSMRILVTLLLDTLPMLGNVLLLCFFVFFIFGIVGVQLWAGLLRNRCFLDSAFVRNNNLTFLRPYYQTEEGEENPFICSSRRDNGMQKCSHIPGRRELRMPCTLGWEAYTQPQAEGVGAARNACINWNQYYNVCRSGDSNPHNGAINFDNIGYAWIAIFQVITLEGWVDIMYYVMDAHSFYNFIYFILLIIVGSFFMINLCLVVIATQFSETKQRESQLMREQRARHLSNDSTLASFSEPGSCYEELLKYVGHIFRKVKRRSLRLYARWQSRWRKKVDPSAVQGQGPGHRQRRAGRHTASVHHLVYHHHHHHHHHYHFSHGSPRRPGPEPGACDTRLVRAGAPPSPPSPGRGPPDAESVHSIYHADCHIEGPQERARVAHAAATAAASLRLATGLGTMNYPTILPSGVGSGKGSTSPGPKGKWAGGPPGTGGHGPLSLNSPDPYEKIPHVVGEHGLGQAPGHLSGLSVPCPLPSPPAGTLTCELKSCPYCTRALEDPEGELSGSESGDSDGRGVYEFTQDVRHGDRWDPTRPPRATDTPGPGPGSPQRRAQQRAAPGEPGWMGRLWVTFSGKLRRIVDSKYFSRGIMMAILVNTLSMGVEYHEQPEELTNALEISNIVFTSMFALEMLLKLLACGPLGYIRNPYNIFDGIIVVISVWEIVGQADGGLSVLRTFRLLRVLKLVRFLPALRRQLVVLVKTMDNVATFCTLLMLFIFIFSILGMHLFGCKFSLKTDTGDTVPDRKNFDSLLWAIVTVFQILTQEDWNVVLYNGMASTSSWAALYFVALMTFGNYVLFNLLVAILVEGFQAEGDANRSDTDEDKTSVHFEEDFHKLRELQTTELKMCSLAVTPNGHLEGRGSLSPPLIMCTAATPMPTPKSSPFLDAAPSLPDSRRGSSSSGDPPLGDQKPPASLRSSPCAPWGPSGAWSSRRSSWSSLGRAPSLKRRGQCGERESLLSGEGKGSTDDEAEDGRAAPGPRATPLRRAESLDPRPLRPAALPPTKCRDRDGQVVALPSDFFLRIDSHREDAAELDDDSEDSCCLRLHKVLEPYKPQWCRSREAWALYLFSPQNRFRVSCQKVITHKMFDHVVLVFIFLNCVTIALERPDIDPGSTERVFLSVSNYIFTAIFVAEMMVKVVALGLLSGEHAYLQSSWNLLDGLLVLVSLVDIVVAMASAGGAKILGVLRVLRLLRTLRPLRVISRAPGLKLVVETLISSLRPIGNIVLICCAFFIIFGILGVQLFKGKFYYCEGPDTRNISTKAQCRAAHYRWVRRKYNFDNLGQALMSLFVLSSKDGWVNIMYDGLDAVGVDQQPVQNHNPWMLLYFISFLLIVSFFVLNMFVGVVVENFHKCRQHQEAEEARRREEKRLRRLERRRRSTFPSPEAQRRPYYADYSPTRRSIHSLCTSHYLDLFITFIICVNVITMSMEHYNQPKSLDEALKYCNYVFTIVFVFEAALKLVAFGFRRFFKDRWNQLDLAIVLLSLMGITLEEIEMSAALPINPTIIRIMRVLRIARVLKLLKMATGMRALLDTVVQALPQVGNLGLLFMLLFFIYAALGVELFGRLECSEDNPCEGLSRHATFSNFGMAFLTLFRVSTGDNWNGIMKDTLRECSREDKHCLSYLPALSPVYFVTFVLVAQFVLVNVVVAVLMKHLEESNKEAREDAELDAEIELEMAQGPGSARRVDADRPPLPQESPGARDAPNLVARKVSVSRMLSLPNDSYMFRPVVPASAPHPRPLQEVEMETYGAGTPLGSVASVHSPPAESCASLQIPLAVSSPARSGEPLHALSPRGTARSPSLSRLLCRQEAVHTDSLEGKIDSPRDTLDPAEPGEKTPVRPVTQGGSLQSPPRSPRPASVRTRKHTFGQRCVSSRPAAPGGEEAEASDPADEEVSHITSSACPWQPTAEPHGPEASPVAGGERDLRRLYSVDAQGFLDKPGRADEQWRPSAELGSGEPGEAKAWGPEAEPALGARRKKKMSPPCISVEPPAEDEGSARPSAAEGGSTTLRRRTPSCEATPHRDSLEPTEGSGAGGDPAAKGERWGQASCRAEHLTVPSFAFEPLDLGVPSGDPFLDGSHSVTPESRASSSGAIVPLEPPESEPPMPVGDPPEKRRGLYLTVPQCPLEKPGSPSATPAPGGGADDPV

SMILES | IC50
Cc1cc(N2CCN(Cc3cc(F)c(C(=O)NS(=O)(=O)C4CC4)cc3Cl)CC2)ccc1Cl [Compound Z-164] | > 30000 nM

biological target: T2, hERG potassium ion channel (Homo sapiens, UniProt Q12809); test: Effect on hERG potassium ion channel (CHO hERG cells, manual patch clamp); format: cell-based; details: final 10 μM test concentration, read-out: hERG inhibitory concentration IC50
T2 construct: host or cells: CHO
Experimental: Assay 2: Effect on hERG Potassium Ion Channel 2.1 Cell Culture 2.1.1 Cells used in this experiment were CHO cell lines (supplied by Sophion Bioscience, Denmark) which were hERG cDNA transfectant and stably express hERG channels, and cell progeny was P15. Cells were cultured in medium containing the following ingredients Invitrogen): Ham's F12 medium, 10% (v/v) inactivated fetal bovine serum, […] Geneticin. 2.1.2 CHO hERG cells were grown in Petri dishes containing the above medium and cultured in an incubator containing 5% CO2 at 37° C. CHO hERG cells were transferred onto round glass plates in Petri dishes, and grown on the same culture medium under culture conditions as above for 24 h to 48 h prior to the electrophysiological experiments, and the density of CHO hERG cells on each round glass plate needs to meet the requirements that the vast majority of cells are independent and individual. 2.2 Experimental Solution The following solutions (supplied by Sophion) were used for electrophysiological recording as shown in Table 3. The reagents used in this test were provided by Sigma. [table] 2.3 Electrophysiological Recording System In this experiment, whole-cell current recording was performed using a manual patch clamp system (HEKA EPC-10 signal amplification and digital conversion system, purchased from HEKA Electronic, Germany). The round glass slide, surface of which CHO hERG cells were grown on was placed in an electrophysiological recording slot under an inverted microscope. Extracellular fluid was used for steady perfision in recording slot (approximately 1 ml per minute). A conventional whole-cell patch clamp current recording technique was used in the experiment. Unless otherwise specified, experiments were performed at normal room temperature (25° C.). Cell clamping was at −80 mV. Cell clamping voltage depolarized to +20 mV to activate hERG potassium channel, clamping to −50 mV after 5 sec to eliminate inactivation and generate tail currents. The tail current peak was used as a value for hERG current. The hERG potassium current recorded in the above steps could be superfused for test drug after the steady perfusion state of the extracellular fluid in the recording slot is stabilized until the inhibition of the hERG current by the drug reached a steady state. The coincidence of the last three consecutive current recording lines was generally used as a criterion to determine whether the state is stable. After reaching a steady state, perfused with extracellular fluid until hERG current returned to the value before the drug adding. One or more drugs could be tested on a single cell, or multiple concentrations of the same drug, but needed to be rinsed with extracellular fluid between different drugs. […] 2.4 Compound Treatment and Dilution The compound was firstly dissolved in DMSO to a concentration of 10 mM and then the compound was diluted 1000-fold to the final […] test concentration using an extracellular solution. The final concentration of DMSO in the compound test solution was equal to 0.1%. […] All stock solutions and test solutions were subjected to regular 5-10 minute sonication and shaken to ensure complete dissolution of the compound. 2.5 Data Analysis The test data were analyzed by the data analysis software provided by HEKA Patchmaster (V2x73.2), Microsoft Excel and Graphpad Prism 5.0.

T2 sequence (Q12809 whole entry): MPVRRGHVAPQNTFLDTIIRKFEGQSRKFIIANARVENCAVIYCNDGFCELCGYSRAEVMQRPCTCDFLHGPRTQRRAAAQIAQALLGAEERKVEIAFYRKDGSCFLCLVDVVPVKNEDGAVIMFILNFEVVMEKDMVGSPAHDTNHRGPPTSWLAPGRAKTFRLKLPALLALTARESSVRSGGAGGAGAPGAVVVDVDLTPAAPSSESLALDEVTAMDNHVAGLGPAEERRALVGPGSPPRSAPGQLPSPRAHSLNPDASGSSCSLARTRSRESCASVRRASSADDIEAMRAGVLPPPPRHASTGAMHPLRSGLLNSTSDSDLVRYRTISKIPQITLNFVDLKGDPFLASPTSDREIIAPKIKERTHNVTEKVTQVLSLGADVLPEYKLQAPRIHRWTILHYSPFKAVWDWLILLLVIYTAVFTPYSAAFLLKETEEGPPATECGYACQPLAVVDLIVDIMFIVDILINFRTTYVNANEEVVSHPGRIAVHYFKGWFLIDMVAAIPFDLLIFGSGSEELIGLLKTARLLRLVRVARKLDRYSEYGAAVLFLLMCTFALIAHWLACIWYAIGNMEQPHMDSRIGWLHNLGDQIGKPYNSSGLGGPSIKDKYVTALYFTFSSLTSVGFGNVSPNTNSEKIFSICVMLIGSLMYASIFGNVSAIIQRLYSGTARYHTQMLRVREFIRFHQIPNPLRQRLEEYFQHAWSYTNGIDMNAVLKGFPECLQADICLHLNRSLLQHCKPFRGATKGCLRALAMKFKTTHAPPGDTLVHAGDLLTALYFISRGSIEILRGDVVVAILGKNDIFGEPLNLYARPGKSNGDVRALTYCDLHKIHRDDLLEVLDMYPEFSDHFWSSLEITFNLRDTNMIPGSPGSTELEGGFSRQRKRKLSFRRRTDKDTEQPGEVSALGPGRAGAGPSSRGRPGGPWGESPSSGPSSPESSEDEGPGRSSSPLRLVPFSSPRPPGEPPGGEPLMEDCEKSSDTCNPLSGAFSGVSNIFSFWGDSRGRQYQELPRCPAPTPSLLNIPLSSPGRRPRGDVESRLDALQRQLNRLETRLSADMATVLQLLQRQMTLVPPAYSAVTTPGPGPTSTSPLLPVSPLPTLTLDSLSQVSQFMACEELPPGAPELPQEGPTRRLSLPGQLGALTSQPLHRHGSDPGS

SMILES | pIC50
C[C@@H]1CN(c2ccc(Cl)c(Cl)c2)CCN1Cc1cc(F)c(C(=O)NS(=O)(=O)C2CC2)cc1Cl [Compound Z-172, (R)-5-Chloro-N-(cyclopropylsulfonyl)-4-((4-(3,4-dichlorophenyl)-2-methylpiperazin-1-yl)methyl)-2-fluorobenzamide] | < 5.00
O=C(NS(=O)(=O)C1CC1)c1cc(Cl)c(CN2CCN(c3ccc(C4CC4)c(Cl)c3)CC2)cc1F [Compound Z-173] | < 5.00
Cc1ccc(N2CCN(Cc3cc(F)c(C(=O)NS(=O)(=O)C4CC4)cc3Cl)CC2)cc1Cl [Compound Z-177] | < 5.00
CCc1cc(N2CCN(Cc3cc(F)c(C(=O)NS(=O)(=O)C4CC4)cc3Cl)CC2)ccc1Cl [Compound Z-178] | < 5.00
CCc1cc(C(=O)NS(=O)(=O)C2CC2)c(F)cc1CN1CCN(c2ccc(OC(F)(F)F)cc2)CC1 [Compound Z-189, N-(cyclopropylsulfonyl)-5-ethyl-2-fluoro-4-((4-(4-(trifluoromethoxy)phenyl)piperazin-1-yl)methyl)benzamide] | < 5.00
